In assay [1] the target is T1, hCA IX (Homo sapiens, UniProt Q16790).
T1 construct: gene CA9; recombinant, obtained in-house; tumour-associated isoform
As to the kind of experiment: stopped-flow CO2 hydrase assay. In kind it is biochemical. An excerpt: stopped-flow CO2 hydrase assay on hCA IX

The next assay has as its target T2, hCA II (Homo sapiens, UniProt P00918).
T2 construct: gene CA2; recombinant, obtained in-house
The assay can be described thus: stopped-flow CO2 hydrase assay. In kind it is biochemical. An excerpt: stopped-flow CO2 hydrase assay on hCA II

The target in another assay is T3, hCA I (Homo sapiens, UniProt P00915).
T3 construct: gene CA1; recombinant, obtained in-house; cytosolic
T3 sequence (P00915 2-261): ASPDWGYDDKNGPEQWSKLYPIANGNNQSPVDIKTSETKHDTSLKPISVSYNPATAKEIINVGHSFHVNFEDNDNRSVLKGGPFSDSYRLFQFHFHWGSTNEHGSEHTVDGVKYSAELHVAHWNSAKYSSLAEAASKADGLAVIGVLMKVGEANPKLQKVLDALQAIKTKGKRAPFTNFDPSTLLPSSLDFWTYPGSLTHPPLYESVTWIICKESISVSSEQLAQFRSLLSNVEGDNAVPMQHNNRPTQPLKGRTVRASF
As to the kind of experiment: stopped-flow CO2 hydrase assay. In kind it is biochemical. The source says:
stopped-flow CO2 hydrase assay on hCA I

The target in the next assay is T4, hCA IV (Homo sapiens, UniProt P22748).
T4 construct: gene CA4; recombinant, obtained in-house; membrane-associated isoform
T4 sequence (P22748 19-284): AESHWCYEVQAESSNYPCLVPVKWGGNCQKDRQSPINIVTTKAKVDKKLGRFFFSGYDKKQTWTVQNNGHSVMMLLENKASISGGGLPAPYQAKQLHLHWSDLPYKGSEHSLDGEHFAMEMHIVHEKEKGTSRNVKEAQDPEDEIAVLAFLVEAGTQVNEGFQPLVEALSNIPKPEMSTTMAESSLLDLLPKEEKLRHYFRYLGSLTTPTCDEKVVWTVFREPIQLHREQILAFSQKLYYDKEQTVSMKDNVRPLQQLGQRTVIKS
The assay can be described thus: stopped-flow CO2 hydrase assay. The format is biochemical.

Assay [2] can be described thus: stopped-flow CO2 hydrase assay. The format is biochemical, Homo sapiens. The note with it: read-out: hCA I.
For assay [3], the target named is T1, hCA IX. As to the kind of experiment: stopped-flow CO2 hydrase assay. The format is biochemical. The following applies: read-out: hCA I.

The source of these data is publication PMC6009853, “Inhibition studies on a panel of human carbonic anhydrases with N1-substituted secondary sulfonamides incorporating thiazolinone or imidazolone-indole tails” (Journal of Enzyme Inhibition and Medicinal Chemistry, 2018).

SMILES strings stand for the structures. pKi: −log10 of the molar value. Where two headings read alike, the source gives them in different places. Where only a bound is given, the exact number is not on record here.

Regarding `NS(=O)(=O)c1ccc(NC2=NC(=O)C(=Cc3c[nH]c4ccccc34)S2)cc1` [7a, 4-{[5-((1H-indol-3-yl)methylene)-4-oxo-4,5-dihydrothiazol-2-yl]amino}benzenesulfonamide], the pKi on hCA IX [1] is 6.51; on hCA II it was 7.12; on hCA I, 7.02; at hCA IV (read-out: hCA IV), 5.35.

With `CC(=O)n1cc(C=C2N=C(c3ccccc3)N(c3ccc(S(=O)(=O)Nc4ccccn4)cc3)C2=O)c2ccccc21` [10d], the pKi (in assay [2]; on hCA IX [3]; at hCA I; on hCA IV (read-out: hCA IV)) was < 5.00 in each case.

On to `O=S(=O)(Nc1ccccn1)c1ccc(N=Cc2c[nH]c3ccccc23)cc1` [4d], for which the pKi (in assay [2]; on hCA IX [3]; on hCA I; on hCA IV (read-out: hCA IV)) was < 5.00 in each case.

As for `N=C(N)NS(=O)(=O)c1ccc(NC2=NC(=O)C(=Cc3c[nH]c4ccccc34)S2)cc1` [7f, 4-{[5-((1H-indol-3-yl)methylene)-4-oxo-4,5-dihydrothiazol-2-yl]amino}-N-carbamimidoyl benzenesulfonamide], the pKi on hCA IX [1] was 5.85; on hCA II, 5.14; on hCA I, 5.04; at hCA IV (read-out: hCA IV), < 5.00.

With `COc1ccc(C2=NC(=Cc3cn(C(C)=O)c4ccccc34)C(=O)N2c2ccc(S(N)(=O)=O)cc2)cc1` [10g, 4-[4-((1-Acetyl-1H-indol-3-yl)methylene)-2–(4-methoxyphenyl)-5-oxo-4,5-dihydro-1H-imidazol-1-yl]benzenesulfonamide], the pKi is 6.48 on hCA IX [1], 6.22 on hCA II, 7.03 on hCA I and 5.56 at hCA IV (read-out: hCA IV).

As for `O=C1N=C(Nc2ccc(S(=O)(=O)Nc3nccs3)cc2)SC1=Cc1c[nH]c2ccccc12` [7e, 4-{[(5-((1H-indol-3-yl)methylene)-4-oxo-4,5-dihydrothiazol-2-yl)amino]-N-(thiazol-2-yl)] benzenesulfonamide], the pKi (in assay [2]; at hCA IX [3]; at hCA I; on hCA IV (read-out: hCA IV)) was < 5.00 throughout.

In the case of `COc1ccc(C2=NC(=Cc3cn(C(C)=O)c4ccccc34)C(=O)N2c2ccc(S(=O)(=O)NC(=N)N)cc2)cc1` [10l, 4-[4-((1-Acetyl-1H-indol-3-yl)methylene)-2–(4-methoxyphenyl)-5-oxo-4,5-dihydro-1H-imidazol-1-yl]-N-carbamimidoylbenzenesulfonamide], the pKi at hCA IX [1] was 5.92; on hCA II it was < 5.00; on hCA I, 5.16; at hCA IV (read-out: hCA II) it was < 5.00.

With `CC(=O)NS(=O)(=O)c1ccc(NC2=NC(=O)C(=Cc3c[nH]c4ccccc34)S2)cc1` [7b, N-{[4-((5-((1H-indol-3-yl)methylene)-4-oxo-4,5-dihydrothiazol-2-yl)amino)phenyl]sulfonyl} acetamide], the pKi on hCA IX [1] is 6.11; on hCA II, < 5.00; at hCA I, 5.10; on hCA IV (read-out: hCA II), < 5.00.

On to `CC(=O)n1cc(C=C2N=C(c3ccccc3)N(c3ccc(S(=O)(=O)N=C(N)N)cc3)C2=O)c2ccccc21` [10f, 4-[4-((1-Acetyl-1H-indol-3-yl)methylene)-5-oxo-2-phenyl-4,5-dihydro-1H-imidazol-1-yl]-N-carbamimidoylbenzenesulfonamide], for which the pKi at hCA IX [1] was 5.79; on hCA II, 5.42; at hCA I, 5.24; on hCA IV (read-out: hCA IV) it was < 5.00.

In the case of `COc1ccc(C2=NC(=Cc3cn(C(C)=O)c4ccccc34)C(=O)N2c2ccc(S(=O)(=O)Nc3ccccn3)cc2)cc1` [10j, 4-[4-((1-Acetyl-1H-indol-3-yl)methylene)-2–(4-methoxyphenyl)-5-oxo-4,5-dihydro-1H-imidazol-1-yl]-N-(pyridin-2-yl)benzenesulfonamide], the pKi (in assay [2]; on hCA IX [3]; on hCA I; on hCA IV (read-out: hCA IV)) was < 5.00 each time.

Take `CC(=O)n1cc(C=C2N=C(c3ccccc3)N(c3ccc(S(=O)(=O)Nc4ncccn4)cc3)C2=O)c2ccccc21` [10c, 4-[4-((1-Acetyl-1H-indol-3-yl)methylene)-5-oxo-2-phenyl-4,5-dihydro-1H-imidazol-1-yl]-N-(pyrimidin-2-yl)benzenesulfonamide]: the pKi (in assay [2]; on hCA IX [3]; on hCA I; at hCA IV (read-out: hCA IV)) was < 5.00 each time.

Consider `COc1ccc(C2=NC(=Cc3cn(C(C)=O)c4ccccc34)C(=O)N2c2ccc(S(=O)(=O)Nc3nccs3)cc2)cc1` [10k, 4-[4-((1-Acetyl-1H-indol-3-yl)methylene)-2–(4-methoxyphenyl)-5-oxo-4,5-dihydro-1H-imidazol-1-yl]-N-(thiazol-2-yl)benzenesulfonamide], for which the pKi (in assay [2]; on hCA IX [3]; at hCA I; at hCA IV (read-out: hCA IV)) was < 5.00 in each case.

As to `CC(=O)NS(=O)(=O)c1ccc(N=Cc2c[nH]c3ccccc23)cc1` [4b, N-{[4-(((1H-indol-3-yl)methylene)amino)phenyl]sulfonyl}acetamide], the pKi was 5.79 at hCA IX [1], < 5.00 on hCA II, 5.07 at hCA I and < 5.00 on hCA IV (read-out: hCA II).

On to `O=S(=O)(Nc1nccs1)c1ccc(N=Cc2c[nH]c3ccccc23)cc1` [4e], for which the pKi (in assay [2]; on hCA IX [3]; on hCA I; on hCA IV (read-out: hCA IV)) was < 5.00 in each case.

Consider `O=C1N=C(Nc2ccc(S(=O)(=O)Nc3ccccn3)cc2)SC1=Cc1c[nH]c2ccccc12` [7d], for which the pKi (in assay [2]; on hCA IX [3]; on hCA I; at hCA IV (read-out: hCA IV)) was < 5.00 each time.

With `NS(=O)(=O)c1ccc(N=Cc2c[nH]c3ccccc23)cc1` [4a, 4-{[(1H-indol-3-yl)methylene]amino}benzenesulfonamide], the pKi is 6.48 on hCA IX [1], 6.24 on hCA II, 7.05 at hCA I and 5.56 on hCA IV (read-out: hCA IV).

Take `O=S(=O)(Nc1ncccn1)c1ccc(N=Cc2c[nH]c3ccccc23)cc1` [4c]: the pKi (in assay [2]; at hCA IX [3]; on hCA I; on hCA IV (read-out: hCA IV)) was < 5.00 throughout.

Turning to `COc1ccc(C2=NC(=Cc3cn(C(C)=O)c4ccccc34)C(=O)N2c2ccc(S(=O)(=O)NC(C)=O)cc2)cc1` [10h, N-[(4–(4-((1-acetyl-1H-indol-3-yl)methylene)-2–(4-methoxyphenyl)-5-oxo-4,5-dihydro-1H-imidazol-1-yl)phenyl)sulfonyl]acetamide], the pKi on hCA IX [1] is 5.85; on hCA II, 6.26; at hCA I, 5.24; at hCA IV (read-out: hCA IV), 5.52.

As for `CC(=O)NS(=O)(=O)c1ccc(N2C(=O)C(=Cc3cn(C(C)=O)c4ccccc34)N=C2c2ccccc2)cc1` [10b, N-[(4–(4-((1-acetyl-1H-indol-3-yl)methylene)-5-oxo-2-phenyl-4,5-dihydro-1H-imidazol-1-yl)phenyl)sulfonyl]acetamide], the values for the pKi on hCA IX [1] and at hCA IV (read-out: hCA IV) were 5.83 and < 5.00, respectively.

As to `CC(=O)n1cc(C=C2N=C(c3ccccc3)N(c3ccc(S(N)(=O)=O)cc3)C2=O)c2ccccc21` [10a, 4-[4-((1-Acetyl-1H-indol-3-yl)methylene)-5-oxo-2-phenyl-4,5-dihydro-1H-imidazol-1-yl]benzenesulfonamide], the figures for the pKi at hCA IX [1] and at hCA IV (read-out: hCA IV) were 6.50 and 6.58, respectively.

In the case of `O=C1N=C(Nc2ccc(S(=O)(=O)Nc3ncccn3)cc2)SC1=Cc1c[nH]c2ccccc12` [7c], the pKi (in assay [2]; at hCA IX [3]; on hCA I; on hCA IV (read-out: hCA IV)) was < 5.00 in each case.

Take `N=C(N)NS(=O)(=O)c1ccc(N=Cc2c[nH]c3ccccc23)cc1` [4f, 4-{[(1H-indol-3-yl)methylene]amino}-N-carbamimidoylbenzenesulfonamide]: the pKi at hCA IX [1] is 5.88; at hCA II, 5.08; on hCA I, 5.12; on hCA IV (read-out: hCA IV), < 5.00.

For the compound `CC(=O)n1cc(C=C2N=C(c3ccccc3)N(c3ccc(S(=O)(=O)Nc4nccs4)cc3)C2=O)c2ccccc21` [10e, 4-[4-((1-Acetyl-1H-indol-3-yl)methylene)-5-oxo-2-phenyl-4,5-dihydro-1H-imidazol-1-yl]-N-(thiazol-2-yl)benzenesulfonamide], the pKi (in assay [2]; at hCA IX [3]; at hCA I; on hCA IV (read-out: hCA IV)) was < 5.00 in each case.

As to `COc1ccc(C2=NC(=Cc3cn(C(C)=O)c4ccccc34)C(=O)N2c2ccc(S(=O)(=O)Nc3ncccn3)cc2)cc1` [10i, 4-[4-((1-Acetyl-1H-indol-3-yl)methylene)-2–(4-methoxyphenyl)-5-oxo-4,5-dihydro-1H-imidazol-1-yl]-N-(pyrimidin-2-yl)benzenesulfonamide], the pKi (in assay [2]; at hCA IX [3]; on hCA I; at hCA IV (read-out: hCA IV)) was < 5.00 each time.
